Measurements reported in US20050027003A1, “Methods of therapeutic treatment using retinoids with reduced side effects” (Allergan, Inc., priority 2003, published 2005).

What was measured:
Assay type in all cases: in vivo, human
patients with psoriasis = assay: Example 2: Phase 3 studies of oral tazarotene for psoriasis, adverse events (Table 1); conditions: Taz 4.5 mg
Experimental: A series of Phase 3 studies are conducted on orally administered tazarotene for the treatment of psoriasis. Adverse events (side effects) are monitored. In addition, published data for acitretin's side effects are also considered.

[1] = tested on: patients with moderate to very severe plaque psoriasis; assay: Example 4: open-label extension study of oral tazarotene in plaque psoriasis; conditions: 4.5 mg once daily
Experimental: Two multicenter, double-blind, placebo-controlled studies ware conducted to evaluate the efficacy and safety of oral tazarotene (4.5 mg once daily) in patients with moderate to very severe plaque psoriasis. […] Efficacy evaluations include overall lesional assessment (OLA), percent body surface area involvement, global response to treatment, plaque elevation, scaling, and erythema. OLA is graded on a 6-point scale (0=none, 1=minimal, 2=mild, 3=moderate, 4=severe, 5=very severe).

[2] = Example 8: PK and PD interactions of oral tazarotene and oral contraceptives; conditions: up to 6 mg once daily
Experimental: It is the objective of this study to determine if there are pharmacokinetic (PK) and pharmacodynamic (PD) interactions between tazarotene and commonly prescribed oral contraceptives (OCs) when coadministered together.
Three separate clinical studies are conducted to evaluate the PK and PD interactions of oral tazarotene and OCs in healthy volunteers. Two studies evaluate daily doses of norethindrone (NE)/ethinyl estradiol (EE) with daily doses of tazarotene 1.1 mg (N=27) and 6 mg (N=29). The third study assesses the daily doses of norgestimate (NGM)/EE with daily doses of tazarotene 6 mg (N=26). OCs are administered for three consecutive menstrual cycles. Daily doses of tazarotene are started during the 2nd cycle and continued through the end of the studies. PK parameters for EE, NE, and NGM (AUC0-24 and Cmax) are determined before tazarotene dosing and after tazarotene dosing on day 6 of the 2nd and 3rd cycles. Serum concentrations of luteinizing hormone (LH) and follicle-stimulating hormone (FSH)-markers of contraceptive efficacy are also evaluated before tazarotene dosing and after tazarotene dosing on days 2, 4, and 6 of the 2nd and 3rd cycles. Serum progesterone levels are assessed on days 18 and 20 of the 2nd and 3rd cycles. […]

[3] = Study 3, treated with Tazarotene for 3 months (N = 220)
[4] = Study 3, treated with Tazarotene for 6 months (N = 92)
[5] = combined data from Studies 1 and 2 (N = 348)

changes in liver function test values or cholesterol levels [1]: no clinically significant changes | effect on PK or efficacy of NE/EE and NGM/EE oral contraceptives [2]: does not affect
Compound: CCOC(=O)c1ccc(C#Cc2ccc3c(c2)C(C)(C)CCS3)nc1 [tazarotene]
Adverse event: Alopecia (patients with psoriasis; [3]): 1 (0.5) number (%) of patients | Adverse event: Arthralgia (patients with psoriasis; [3]): 28 (12.7) number (%) of patients | Adverse event: Atrophy of skin (patients with psoriasis; [3]): 0 (0.0) number (%) of patients | Adverse event: Back pain (patients with psoriasis; [3]): 7 (3.2) number (%) of patients | Adverse event: Cheilitis (patients with psoriasis; [3]): 149 (67.7) number (%) of patients | Adverse event: Dry Skin (patients with psoriasis; [3]): 47 (21.4) number (%) of patients | Adverse event: Dry mouth/Oral dryness (patients with psoriasis; [3]): 11 (5.0) number (%) of patients | Adverse event: Epistaxis (patients with psoriasis; [3]): 1 (0.5) number (%) of patients | Adverse event: Erythematous rash/Erythema (patients with psoriasis; [3]): 0 (0.0) number (%) of patients | Adverse event: Hyperesthesia (patients with psoriasis; [3]): 0 (0.0) number (%) of patients | Adverse event: Nail Disorder (patients with psoriasis; [3]): 1 (0.5) number (%) of patients | Adverse event: Paresthesia (patients with psoriasis; [3]): 3 (1.4) number (%) of patients | Adverse event: Paronychia/Nail disorder (patients with psoriasis; [3]): 1 (0.5) number (%) of patients | Adverse event: Pruritus (patients with psoriasis; [3]): 11 (5.0) number (%) of patients | Adverse event: Rhinitis (patients with psoriasis; [3]): 0 (0.0) number (%) of patients | Adverse event: Rigors/Chills (patients with psoriasis; [3]): 1 (0.5) number (%) of patients | Adverse event: Skin peeling/Desquamation (patients with psoriasis; [3]): 3 (1.4) number (%) of patients | Adverse event: Sticky skin/Skin disorder (patients with psoriasis; [3]): 0 (0.0) number (%) of patients | Adverse event: Xerophthalmia/Eye disorder (patients with psoriasis; [3]): 3 (1.4) number (%) of patients | Adverse event: Alopecia (patients with psoriasis; [4]): 5 (5.4) number (%) of patients | Adverse event: Arthralgia (patients with psoriasis; [4]): 30 (32.6) number (%) of patients | Adverse event: Atrophy of skin (patients with psoriasis; [4]): 0 (0.0) number (%) of patients | Adverse event: Back pain (patients with psoriasis; [4]): 10 (10.9) number (%) of patients | Adverse event: Cheilitis (patients with psoriasis; [4]): 65 (70.7) number (%) of patients | Adverse event: Dry Skin (patients with psoriasis; [4]): 24 (26.1) number (%) of patients | Adverse event: Dry mouth/Oral dryness (patients with psoriasis; [4]): 2 (2.2) number (%) of patients | Adverse event: Epistaxis (patients with psoriasis; [4]): 0 (0.0) number (%) of patients | Adverse event: Erythematous rash/Erythema (patients with psoriasis; [4]): 0 (0.0) number (%) of patients | Adverse event: Hyperesthesia (patients with psoriasis; [4]): 0 (0.0) number (%) of patients | Adverse event: Nail Disorder (patients with psoriasis; [4]): 1 (1.1) number (%) of patients | Adverse event: Paresthesia (patients with psoriasis; [4]): 1 (1.1) number (%) of patients | Adverse event: Paronychia/Nail disorder (patients with psoriasis; [4]): 1 (1.1) number (%) of patients | Adverse event: Pruritus (patients with psoriasis; [4]): 3 (3.3) number (%) of patients | Adverse event: Rhinitis (patients with psoriasis; [4]): 0 (0.0) number (%) of patients | Adverse event: Rigors/Chills (patients with psoriasis; [4]): 1 (1.1) number (%) of patients | Adverse event: Skin peeling/Desquamation (patients with psoriasis; [4]): 1 (1.1) number (%) of patients | Adverse event: Sticky skin/Skin disorder (patients with psoriasis; [4]): 0 (0.0) number (%) of patients | Adverse event: Xerophthalmia/Eye disorder (patients with psoriasis; [4]): 1 (1.1) number (%) of patients | Adverse event: Alopecia (patients with psoriasis; [5]): 1 (0.3) number (%) of patients | Adverse event: Arthralgia (patients with psoriasis; [5]): 60 (17.2) number (%) of patients | Adverse event: Atrophy of skin (patients with psoriasis; [5]): 0 (0.0) number (%) of patients | Adverse event: Back pain (patients with psoriasis; [5]): 16 (4.6) number (%) of patients | Adverse event: Cheilitis (patients with psoriasis; [5]): 228 (65.5) number (%) of patients | Adverse event: Dry Skin (patients with psoriasis; [5]): 82 (23.6) number (%) of patients | Adverse event: Dry mouth/Oral dryness (patients with psoriasis; [5]): 11 (3.2) number (%) of patients | Adverse event: Epistaxis (patients with psoriasis; [5]): 2 (0.6) number (%) of patients | Adverse event: Erythematous rash/Erythema (patients with psoriasis; [5]): 2 (0.6) number (%) of patients | Adverse event: Hyperesthesia (patients with psoriasis; [5]): 0 (0.0) number (%) of patients | Adverse event: Nail Disorder (patients with psoriasis; [5]): 2 (0.6) number (%) of patients | Adverse event: Paresthesia (patients with psoriasis; [5]): 7 (2.0) number (%) of patients | Adverse event: Paronychia/Nail disorder (patients with psoriasis; [5]): 2 (0.6) number (%) of patients | Adverse event: Pruritus (patients with psoriasis; [5]): 21 (6.0) number (%) of patients | Adverse event: Rhinitis (patients with psoriasis; [5]): 8 (2.3) number (%) of patients | Adverse event: Rigors/Chills (patients with psoriasis; [5]): 9 (2.6) number (%) of patients | Adverse event: Skin peeling/Desquamation (patients with psoriasis; [5]): 3 (0.9) number (%) of patients | Adverse event: Sticky skin/Skin disorder (patients with psoriasis; [5]): 1 (0.3) number (%) of patients | Adverse event: Xerophthalmia/Eye disorder (patients with psoriasis; [5]): 8 (2.3) number (%) of patients | serious adverse events considered related to the study treatment [1]: no serious adverse events | incidence of arthralgia ([1]; 12 weeks, across both groups): 20% | incidence of asthenia ([1]; 12 weeks, across both groups): 6% | incidence of back pain ([1]; 12 weeks, across both groups): 11% | incidence of cheilitis ([1]; 12 weeks, across both groups): 70% | incidence of hypertriglyceridemia ([1]; 12 weeks, across both groups): 6% | incidence of myalgia ([1]; 12 weeks, across both groups): 15%
